Assay results: patent US20040192581A1, “Topical anti-infective formulations” (priority 2002, published 2004)

Test system: S. aureus
Assay: In vitro efficacy of nisin cream versus nisin in PBS, viable cell count
Format: cell-based
Conditions: 37° C. for 60 minutes
Protocol: A topical cream (100 g) was prepared by heating the waxes and oils to about 70° C. Nisin in an aqueous solution was added after the cream had cooled to room temperature. The following ingredients were mixed in a 250 mL glass beaker until a homogenous compound was formed:
To test the anti-infective activity of the nisin-based cream, and to compare this activity to that of the same concentration of nisin in PBS, 20 μL of a suspension of 9×10^8 CFU/mL S. aureus was added to 1 g of cream and 1 mL of PBS at the nisin concentrations indicated in Table I. The samples were vortexed to mix and incubated at 37° C. for 60 minutes. 1 mL of mineral oil was added to the cream to facilitate pipetting and then serial dilutions were plated for enumeration of viable cells. The data in Table I show the viable cells for each nisin concentration.

Nisin
viable cells, PBS (nisin 0.5 μg/ml in PBS): TNTC | viable cells, Cream (nisin 0.5 μg/ml in cream): 1082 cfu/ml | viable cells, PBS (nisin 2.5 μg/ml in PBS): TNTC | viable cells, Cream (nisin 2.5 μg/ml in cream): 140 cfu/ml | viable cells, PBS (nisin 12.5 μg/ml in PBS): 482 cfu/ml | viable cells, Cream (nisin 12.5 μg/ml in cream): 12 cfu/ml
